# In patent US10385022B2, “3-amino-pyridines as GPBAR1 agonists” (HOFFMANN-LA ROCHE INC., priority 2011, dated 2019):
# Counter-ions that a name gives are not always drawn.
# Target: human GPBAR1 receptor (Homo sapiens (Human), UniProt Q8TDU6)
# Test: functional cAMP assay in CHO-dhfr(minus) cells expressing human GPBAR1 receptors
# Assay type: cell-based
# Conditions: CHO-dhfr(minus) cells expressing human GPBAR1, 30 min at 30° C.
# How it was run: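 Functional cAMP responses in a human GPBAR1-transfected CHO-dhfr- clone, picked using lithocholic acid as agonist, gave the EC50 values. Parallel testing in untransfected CHO cells served as a specificity control.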
# Sequence of human GPBAR1 receptor (Q8TDU6 whole entry): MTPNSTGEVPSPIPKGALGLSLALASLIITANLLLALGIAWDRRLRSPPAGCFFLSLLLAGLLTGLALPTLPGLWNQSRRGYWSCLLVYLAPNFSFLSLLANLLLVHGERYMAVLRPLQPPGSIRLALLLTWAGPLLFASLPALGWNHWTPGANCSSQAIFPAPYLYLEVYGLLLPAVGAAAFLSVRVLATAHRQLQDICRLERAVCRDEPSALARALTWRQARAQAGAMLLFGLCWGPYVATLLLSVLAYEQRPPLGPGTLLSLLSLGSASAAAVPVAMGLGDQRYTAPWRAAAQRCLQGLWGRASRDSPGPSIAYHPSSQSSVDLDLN
row,SMILES,EC50
1,"COc1cc(F)ccc1-c1ccncc1N(CCS(C)(=O)=O)C(=O)c1cc(C(F)(F)F)cc(C(F)(F)F)c1 [Example 192, N-[4-(4-Fluoro-2-methoxy-phenyl)-pyridin-3-yl]-N-(2-methanesulfonyl-ethyl)-3,5-bis-tri fluoro methyl-benzamide]",105 nM
2,"CC1CCCCN1c1ccncc1N(C)C(=O)c1cc(Cl)cc(Cl)c1 (stereo not shown) [Example 21, 3,5-Dichloro-N-methyl-N-(2-methyl-3,4,5,6-tetrahydro-2H-[1,4′]bipyridinyl-3′-yl)-benzamide hydrochloride salt]",388 nM
3,"COc1cc(F)ccc1-c1ccncc1N(CC(N)=O)C(=O)c1cc(C(F)(F)F)nc(C(F)(F)F)c1 [Example 177, N-Carbamoylmethyl-N-[4-(4-fluoro-2-methoxy-phenyl)-pyridin-3-yl]-2,6-bis-trifluoromethyl-isonicotinamide]",36 nM
4,"COc1cccc(-c2ccncc2N(C)C(=O)c2cc(C(F)(F)F)cc(C(F)(F)F)c2)c1OC [Example 167, N-[4-(2,3-Dimethoxy-phenyl)-pyridin-3-yl]-N-methyl-3,5-bis-trifluoromethyl-benzamide]",2720 nM
5,"COC(=O)c1ccc(C)c(-c2ccncc2N(C)C(=O)c2cc(C(F)(F)F)cc(C(F)(F)F)c2)c1 [Example 83, 3-{3-[(3,5-Bis-trifluoromethyl-benzoyl)-methyl-amino]-pyridin-4-yl}-4-methyl-benzoic acid methyl ester]",376 nM
6,"CS(=O)(=O)c1cc(C(=O)N(Cc2ncco2)c2cnccc2-c2ccccc2Cl)cc(C(F)(F)F)c1 [Example 294, N-[4-(2-Chloro-phenyl)-pyridin-3-yl]-3-methanesulfonyl-N-oxazol-2-ylmethyl-5-trifluoromethyl-benzamide]",42 nM
7,"COc1c(-c2ccncc2N(C)C(=O)c2cc(C(F)(F)F)cc(C(F)(F)F)c2)ccc(F)c1F [Example 60, N-[4-(3,4-Difluoro-2-methoxy-phenyl)-pyridin-3-yl]-N-methyl-3,5-bis-trifluoromethyl-benzamide]",114 nM
8,"COc1ncccc1-c1ccncc1N(CCS(C)(=O)=O)C(=O)c1cc(C(F)(F)F)nc(C(F)(F)F)c1 [Example 160, N-(2-Methanesulfonyl-ethyl)-N-(2-methoxy-[3,4′]bipyridinyl-3′-yl)-2,6-bis-trifluoromethyl-isonicotinamide]",281 nM
9,"Cc1ccccc1-c1cc(C#N)ncc1N(C)C(=O)c1cc(C(F)(F)F)cc(C(F)(F)F)c1 [Example 19, N-(6-Cyano-4-o-tolyl-pyridin-3-yl)-N-methyl-3,5-bis-trifluoromethyl-benzamide]",340 nM
10,"COc1cc(F)ccc1-c1ccncc1N(C)C(=O)c1cc(Cl)cc(S(C)(=O)=O)c1 [Example 257, 3-Chloro-N-[4-(4-fluoro-2-methoxy-phenyl)-pyridin-3-yl]-5-methanesulfonyl-N-methyl-benzamide]",79 nM
11,"COc1cc(F)ccc1-c1ccncc1N(C)C(=O)c1cc(SCCNC(=O)OC(C)(C)C)cc(C(F)(F)F)c1 [Example 234, [2-(3-{[4-(4-Fluoro-2-methoxy-phenyl)-pyridin-3-yl]-methyl-carbamoyl}-5-trifluoromethyl-phenylsulfanyl)-ethyl]-carbamic acid tert-butyl ester]",405 nM
12,"COc1cc(F)ccc1-c1ccncc1N(CC(F)(F)F)C(=O)c1cc(F)cc(C(F)(F)F)c1 [Example 134, 3-Fluoro-N-[4-(4-fluoro-2-methoxy-phenyl)-pyridin-3-yl]-N-(2,2,2-trifluoro-ethyl)-5-trifluoromethyl-benzamide]",912 nM
13,"CN(C(=O)c1cc(C(F)(F)F)cc(C(F)(F)F)c1)c1cnccc1-c1ccccc1CC#N [Example 175, N-[4-(2-Cyanomethyl-phenyl)-pyridin-3-yl]-N-methyl-3,5-bis-trifluoromethyl-benzamide]",571 nM
14,"COc1cc(F)ccc1-c1ccncc1N(CC1CCCCO1)C(=O)c1cc(C(F)(F)F)cc(S(C)(=O)=O)c1 (single isomer, unassigned; (-)) [Example 290, (−)-N-[4-(4-Fluoro-2-methoxy-phenyl)-pyridin-3-yl]-3-methanesulfonyl-N-[1-(tetrahydro-pyran-2-yl)methyl]-5-trifluoromethyl-benzamide]",1740 nM
15,"COCCOc1cc(C(=O)N(C)c2cnccc2-c2ccc(F)cc2OC)cc(C(F)(F)F)c1 [Example 236, N-[4-(4-Fluoro-2-methoxy-phenyl)-pyridin-3-yl]-3-(2-methoxy-ethoxy)-N-methyl-5-trifluoromethyl-benzamide]",886 nM
16,"COc1cc(F)ccc1-c1ccncc1N(C)C(=O)c1cc(C(F)(F)F)cc(S(=O)(=O)CCCCC(N)=O)c1 [Example 254, 3-(4-Carbamoyl-butane-1-sulfonyl)-N-[4-(4-fluoro-2-methoxy-phenyl)-pyridin-3-yl]-N-methyl-5-trifluoromethyl-benzamide]",54 nM
17,"COc1cc(F)ccc1-c1ccncc1N(CCS(C)(=O)=O)C(=O)c1cc(C(F)(F)F)cc(S(C)(=O)=O)c1 [Example 306, N-[4-(4-Fluoro-2-methoxy-phenyl)-pyridin-3-yl]-3-methanesulfonyl-N-(2-methanesulfonyl-ethyl)-5-trifluoromethyl-benzamide]",190 nM

row,SMILES,EC50
1,"O=C(c1cc(C(F)(F)F)cc(C(F)(F)F)c1)N(CC1CC1)c1cnccc1-c1ccccc1Cl [Example 86, N-[4-(2-Chloro-phenyl)-pyridin-3-yl]-N-cyclopropylmethyl-3,5-bis-trifluoromethyl-benzamide]",267 nM
2,"COc1cc(F)ccc1-c1ccncc1N(C)C(=O)c1cc(O)cc(C(F)(F)F)c1 [Example 226, N-[4-(4-Fluoro-2-methoxy-phenyl)-pyridin-3-yl]-3-hydroxy-N-methyl-5-trifluoromethyl-benzamide]",958 nM
3,"COc1cc(F)ccc1-c1ccncc1N(C)C(=O)c1cc(OCCO)cc(C(F)(F)F)c1 [Example 240, N-[4-(4-Fluoro-2-methoxy-phenyl)-pyridin-3-yl]-3-(2-hydroxy-ethoxy)-N-methyl-5-trifluoromethyl-benzamide]",1150 nM
4,"COc1cc(F)ccc1-c1ccncc1N(C)C(=O)c1cc(SCCNS(N)(=O)=O)cc(C(F)(F)F)c1 [Example 261, N-[4-(4-fluoro-2-methoxyphenyl)pyridin-3-yl]-N-methyl-3-{[2-(sulfamoylamino)ethyl]-sulfanyl}-5-(trifluoromethyl)benzamide]",190 nM
5,"COC(=O)CN(C(=O)c1cc(C(F)(F)F)nc(C(F)(F)F)c1)c1cnccc1-c1c(F)cccc1OC [Example 195, Methyl 2-(N-(4-(2-fluoro-6-methoxyphenyl)pyridin-3-yl)-2,6-bis(trifluoromethyl)isonicotinamido)acetate]",13 nM
6,"Cc1ccccc1-c1ccncc1N(CC#N)C(=O)c1cc(C(F)(F)F)cc(C(F)(F)F)c1 [Example 161, N-Cyanomethyl-N-(4-o-tolyl-pyridin-3-yl)-3,5-bis-trifluoromethyl-benzamide]",29 nM
7,"COc1cc(F)ccc1-c1ccncc1N(C)C(=O)c1cc(C(F)(F)F)cc(S(=O)(=O)C2CNC2)c1 [Example 280, 3-(Azctidine-3-sulfonyl)-N-[4-(4-fluoro-2-methoxy-phenyl)-pyridin-3-yl]-N-methyl-5-trifluoromethyl-benzamide]",268 nM
8,"COc1cc(F)ccc1-c1ccncc1N(C)C(=O)c1cc(Cl)cc(OC(F)(F)F)c1 [Example 227, 3-Chloro-N-[4-(4-fluoro-2-methoxy-phenyl)-pyridin-3-yl]-N-methyl-5-trifluoromethoxy-benzamide]",93 nM
9,"CN(C(=O)c1cc(C(F)(F)F)cc(C(F)(F)F)c1)c1cnccc1C1=CCOCC1 [Example 166, N-[4-(3,6-Dihydro-2H-pyran-4-yl)-pyridin-3-yl]-N-methyl-3,5-bis-trifluoromethyl-benzamide]",1780 nM
10,"CS(=O)(=O)CCN(C(=O)c1cc(C(F)(F)F)cc(C(F)(F)F)c1)c1cnccc1-c1ccccc1F [Example 191, N-[4-(2-Fluoro-phenyl)-pyridin-3-yl]-N-(2-methanesulfonyl-ethyl)-3,5-bis-trifluoromethyl-benzamide]",111 nM
11,"Cc1ccccc1-c1ccncc1N(C)C(=O)c1ccc(C)c(C(F)(F)F)c1 [Example 91, 4,N-Dimethyl-N-(4-o-tolyl-pyridin-3-yl)-3-trifluoromethyl-benzamide]",152 nM
12,"COC(=O)CCS(=O)(=O)c1cc(C(=O)N(C)c2cnccc2-c2ccc(F)cc2OC)cc(C(F)(F)F)c1 [Example 224, 3-(3-{[4-(4-Fluoro-2-methoxy-phenyl)-pyridin-3-yl]-methyl-carbamoyl}-5-trifluoromethyl-benzenesulfonyl)-propionic acid methyl ester]",46 nM
13,"COC(=O)CN(C(=O)c1cc(C(F)(F)F)cc(S(C)(=O)=O)c1)c1cnccc1-c1ccccc1F [Example 213, [[4-(2-Fluoro-phenyl)-pyridin-3-yl]-(3-methanesulfonyl-5-trifluoromethyl-benzoyl)-amino]-acetic acid methyl ester]",253 nM
14,"Cc1cc(Cl)ccc1-c1ccncc1N(C)C(=O)c1cc(C(F)(F)F)cc(C(F)(F)F)c1 [Example 30, N-[4-(4-Chloro-2-methyl-phenyl)-pyridin-3-yl]-N-methyl-3,5-bis-trifluoromethyl-benzamide]",1620 nM
15,"COc1cc(F)c(F)cc1-c1ccncc1N(C)C(=O)c1cc(F)cc(C(F)(F)F)c1 [Example 130, N-[4-(4,5-Difluoro-2-methoxy-phenyl)-pyridin-3-yl]-3-fluoro-N-methyl-5-trifluoromethyl-benzamide]",166 nM
16,"Cc1ccccc1-c1ccncc1N(C)C(=O)c1ccc(Cl)c(Cl)c1 [Example 10, 3,4-Dichloro-N-methyl-N-(4-o-tolyl-pyridin-3-yl)-benzamide]",238 nM
17,"COC(=O)CN(C(=O)c1cc(C(F)(F)F)cc(S(C)(=O)=O)c1)c1cnccc1-c1cccnc1OC [Example 180, [(3-Methanesulfonyl-5-trifluoromethyl-benzoyl)-(2-methoxy-[3,4′]bipyridinyl-3′-yl)-amino]-acetic acid methyl ester]",197 nM
